Reference: patent US20220168430A1, “THERAPEUTIC METHODS FOR TREATING HEPATITIS B” (priority 2019, published 2022)
“And” between values parts separate entries of the source, which are not always exact repeats. Identical values can stand only once. Like-named read-outs stand apart in the source and are kept apart here.

Tests used:
HBV DNA [1] = assay: HBV DNA in culture supernatants of HBV-infected PHH by qPCR (Examples 15-17); type: cell-based, HBV genotype D; primary human hepatocytes; details: Hepatitis B virus, determined in an earlier separate experiment
HBV DNA [2] = assay: as above; type: cell-based, HBV genotype D; primary human hepatocytes
Protocol: The day PHH seeding date was defined as day 0.
The PHH were infected with 400 HBV GE/cell of D type HBV on day 1.
The test articles were further diluted with the culture medium to the final test concentrations.
All the test articles were further diluted 100 times with the culture medium. The final concentration of DMSO in the culture medium was […].
Four two-way combinations were performed on a 5×5 matrix, in triplicate plates. Transfection reagent was present in all wells.
DNA in the culture supernatants harvested on days 8 was isolated with QIAamp 96 DNA Blood Kit (Qiagen-51162). For each sample, 100 μl of each culture supernatant was used to extract DNA. The DNA was eluted with 180 μl of AE. HBV DNA in the culture supernatants was quantified by quatitative PCR using well-established and commonly used procedures. Percent inhibition of HBV DNA was calculated with the formula below:
% Inh. HBV DNA=[1−value of sample/AVG. value of Medium control]×100.
Results of double combination studies were analyzed using MacSynergy II software (Prichard and Shipman, 1992).

HBV DNA [3] = assay: HBV DNA by branched DNA assay in HepG2.2.15 cells, two-compound combinations (Examples 13-14); type: cell-based, HBV; HepG2.2.15 (human hepatoblastoma); details: for Average percent inhibition versus negative control: Cmpd 2 μM: 0.01, 0.0032, 0.001, 0.0003, 0.0001, 0, n = 4; for Additive percent inhibition versus negative control: Compound (2) μM: 0.01, 0.0032, 0.001, 0.0003, 0.0001, 0
Protocol: In vitro combination studies were conducted using the method of Prichard and Shipman (Prichard M N, and Shipman C Jr., Antiviral Research, 1990, 14(4-5), 181-205; and Prichard M N, et. al., MacSynergy II). The HepG2.2.15 cell culture system is a cell line derived from human hepatoblastoma HepG2 cells, which have been stably transfected with the adw2-subtype HBV genome as previously explained in Sells et al. (Proc. Natl. Acad. Sci. U. S. A, 1987. Vol 84:1005-1009). HepG2.2.15 cells secrete Dane-like viral particles, produce HBV DNA, and produce the viral proteins, HBeAg and HBsAg.
Although inhibition of HBV DNA, RNA and proteins can be determined in the presence of these inhibitors, we used the branched DNA assay due to its ability to quantitatively measure the level HBV DNA.
Detection of HBV DNA. The branched DNA assay (bDNA) was used to determine the effect of compound combinations on HBV DNA. HepG2.2.15 (10,000 cells/well) were cultured in DMEM medium plus supplements as described above. The next day, the cells were replenished with fresh medium followed by the addition of Inhibitor A and B, both were dissolved in 100% DMSO. The microtiter cell plates were incubated for a total duration of 6 days at 37° C. without replenishing media or compound. The serial dilutions spanned concentration ranges respective to the EC50 value of each compound. In addition to combination testing of the compounds, both inhibitors A and B were also tested singly.
The level of bDNA present in the inhibitor-treated supernatant wells was measured using a Quantigene 2.0 bDNA assay kit (Affymetrix, Santa Clara, Calif.) with HBV specific custom probe set (genotype D ayw; DF-10739) and manufacturer's instructions after performing a proteinase K digestion in lysis. The plates were read using a Victor luminescence plate reader (PerkinElmer Model 1420 Multilabel counter) and the RLU data generated from each well was calculated as inhibition of the untreated control wells. The data was analyzed using the interpretive guidelines established by Prichard and Shipman combination model using the MacSynergy II program (Prichard M N, Shipman C Jr. Antiviral Research, 1990. Vol 14(4-5):181-205; Prichard M N, Aseltine KR, and Shipman, C. MacSynergy II. University of Michigan 1992) to determine whether the combinations were synergistic, additive or antagonistic using the interpretive guidelines established by Prichard and Shipman as follows: synergy volumes <25 μM2% (log volume <2) at 95% CI=probably insignificant; 25-50 (log volume >2 and <5)=minor but significant 50-100 (log volume >5 and <9)=moderate, may be important in vivo; Over 100 (log volume >9)=strong synergy, probably important in vivo; volumes approaching 1000 (log volume >90)=unusually high, check data. The RLU data from the single compound treated cells were analyzed using XL-Fit module in Microsoft Excel to determine EC50 values using a 4-parameter curve fitting algorithm.

HBsAg = HBsAg in culture supernatants of HBV-infected PHH by ELISA (Examples 15-17); details: for AVERAGE % INHIBITION: HBsAg; for EC50: Hepatitis B virus
Protocol: All the test articles were further diluted 100 times with the culture medium. The final concentration of DMSO in the culture medium was 2%.
HBsAg in the culture supernatants harvested on days 8 was measured using the HBsAg/ELISA kit (Autobio) according to the manual. The samples were diluted 4-fold with PBS to get the signal in the range of the standard curve. Percent inhibition of HBsAg was calculated with the following formula:
% Inh. HBsAg=[1−HBsAg quantity of sample/HBV quantity of DMSO control]×100

HBV DNA [4] = type: in vivo, C57BL/6 mice; HBV serotype Ayw, genotype D; details: for Serum HBV DNA: group mean ± SEM, n=6
Protocol: Prior to treatment start, 1×10^11 viral genomes of an adeno-associated virus (AAV) vector carrying a 1.3-fold overlength copy of an HBV genome (serotype Ayw, genotype D) was administered to C57BL/6 mice via intravenous injection. Introduction of this viral vector results in the expression of HBV DNA and HBV surface antigen (HBsAg) amongst other HBV products. Serum HBV DNA levels in mice was measured using a quantitative polymerase chain reaction (QPCR) assay, HBsAg in serum and liver of mice was measured using an enzyme-linked immunosorbent assay (ELISA), and anti-HBsAg antibodies were measured using ELISA.
Treatment effects on serum HBV DNA were determined by collecting a small amount of blood on Days 0 (pre-treatment) and 14, as well as from terminal blood collections at Day 42. Treatment effects on HBsAg in serum and liver were determined from terminal sample collections at Day 42.
Any individual animal samples measured to fall below assay lower limit of quantitation (LLOQ) were reported as the LLOQ value.

With C=C1[C@H](CO)[C@@H](O)C[C@@H]1n1cnc2c(=O)[nH]c(N)nc21 [ETV, entecavir] the EC50 (HBV DNA [1]) was 0.015 nM, the “SYNERGY PLOT (99.9%) Bonferroni Adj. 98% (HBV DNA)” value (HBV DNA [2]; Compound 1 0.00 μg/mL, ETV nM by row: r41 0.07000, r42 0.02300, r43 0.00780, r44 0.00260, r45 0.00086, r46 0.00000) was 0 and the inhibition at 860 fM (HBV DNA [2]; Hepatitis B virus, HBV DNA, ETV 0.00086 nM alone) was -5.71%. The inhibition at 2.6 pM (HBV DNA [2]; Hepatitis B virus, HBV DNA, ETV 0.00260 nM alone) was 8.16%, the inhibition at 23 pM (HBV DNA [2]; Hepatitis B virus, HBV DNA, ETV 0.02300 nM alone) was 62.3% and the inhibition at 70 pM (HBV DNA [2]; Hepatitis B virus, HBV DNA, ETV 0.07000 nM alone) was 85.7%. For the same compound, the inhibition at 7.8 pM (HBV DNA [2]; Hepatitis B virus, HBV DNA, ETV […] alone) was 24.2%, the “MacSynergy Volume Calculations, 99.99% confidence interval (Bonferroni Adj. 96%)” value (HBV DNA [3]) was 0.00 and the “Average percent inhibition versus negative control” value (HBV DNA [3]; ETV 0.0001 μM) was −21.2%. The “Additive percent inhibition versus negative control” value (HBV DNA [3]; ETV 0.0001 μM) was −21.2%, the “Average percent inhibition versus negative control” value (HBV DNA [3]; ETV 0.001 μM) was 48.98% and the “Additive percent inhibition versus negative control” value (HBV DNA [3]; ETV 0.001 μM) was 48.98%. The “Average percent inhibition versus negative control” value (HBV DNA [3]; ETV 0.1 μM) was 85.09%, the “Additive percent inhibition versus negative control” value (HBV DNA [3]; ETV 0.1 μM) was 85.09% and the “Average percent inhibition versus negative control” value (HBV DNA [3]; ETV 1.0E−05 μM) was −88.53%. For the same compound, the “Additive percent inhibition versus negative control” value (HBV DNA [3]; ETV 1.0E−05 μM) was −88.53%, the “Average percent inhibition versus negative control” value (HBV DNA [3]; ETV 1.00E−06 μM) was −90.87% and the “Additive percent inhibition versus negative control” value (HBV DNA [3]; ETV 1.00E−06 μM) was −90.87%. For the same compound, the “Average percent inhibition versus negative control” value (HBV DNA [3]; ETV 3.16E−06 μM) was −90.2%, the “Additive percent inhibition versus negative control” value (HBV DNA [3]; ETV 3.16E−06 μM) was −90.2% and the “Average percent inhibition versus negative control” value (HBV DNA [3]; ETV 3.17E−05 μM) was −55.97%. For the same compound, the “Additive percent inhibition versus negative control” value (HBV DNA [3]; ETV 3.17E−05 μM) was −55.97%, the EC50 (HBV DNA [3]; Hepatitis B virus, HepG2.2.15, bDNA quantitation, read-out: Inhibitor A EC50) was 3.2 nM and the “AVERAGE % INHIBITION” value (HBsAg; ETV 0.00260 nM alone) was 4.92% and −1.45%. For the same compound, the “AVERAGE % INHIBITION” value (HBsAg; ETV 0.02300 nM alone) was 0.19% and −6.78% and the EC50 (HBsAg) was > 0.07 nM.
For CC(C)OC(=O)OCOP(=O)(CO[C@H](C)Cn1cnc2c(N)ncnc21)OCOC(=O)OC(C)C.O=C(O)/C=C/C(=O)O [TDF, tenofovir disoproxil fumarate, reference compound], the EC50 (HBV DNA [1]) was 0.42 nM, the “AVERAGE % INHIBITION” value (HBV DNA [2]; HBV DNA, TDF 0.12 nM alone) was 22.22% and the “AVERAGE % INHIBITION” value (HBV DNA [2]; HBV DNA, TDF 10.0 nM alone) was 92.76%. For the same compound, the inhibition at 0.00012 µM (HBV DNA [2]; Hepatitis B virus, HBV DNA, TDF 0.12 nM alone) was 36.1%, the inhibition at 0.00037 µM (HBV DNA [2]; Hepatitis B virus, HBV DNA, TDF 0.37 nM alone) was 44.6% and the inhibition at 0.01 µM (HBV DNA [2]; Hepatitis B virus, HBV DNA, TDF 10.0 nM alone) was 92.5%. For the same compound, the “Serum HBV DNA” value (HBV DNA [4]; Day 0 (pre-treatment)) was 4.31 ± 0.10 log10 copies/microliter, the “Serum HBV DNA” value (HBV DNA [4]; Day 14, siRNA 3 mg/kg s.c. Days 0 and 28, encapsidation inhibitor 100 mg/kg and/or TDF 1 mg/kg oral daily) was 3.11 ± 0.15 log10 copies/microliter and the “Serum HBV DNA” value (HBV DNA [4]; Day 42, siRNA 3 mg/kg s.c. Days 0 and 28, encapsidation inhibitor 100 mg/kg and/or TDF 1 mg/kg oral daily Days 0-41) was 3.58 ± 0.14 log10 copies/microliter. For the same compound, the “HBV DNA inhibition, decrease from Day 0 to Day 42” value (HBV DNA [4]; serum, AAV-HBV mice, siRNA 3 mg/kg s.c. Days 0 and 28, encapsidation inhibitor 100 mg/kg and/or TDF 1 mg/kg oral daily) was 0.73 log10, the “AVERAGE % INHIBITION” value (HBsAg; TDF 0.12 nM alone) was −1.47% and −10.84% and the “AVERAGE % INHIBITION” value (HBsAg; TDF 0.37 nM alone) was −1.3% and −9.3%. For the same compound, the EC50 (HBsAg) was > 10 nM.
